Data reported in patent publication US20240228497A1, “Pyrrolo[2, 3-b]Pyrazine-Based Bifunctional Compounds as HPK1 Degraders and the Use Thereof” (BeiGene, Ltd., priority 2021, published 2024).
pIC50: −log10 of the molar value.

Experiments:
[1] = target: T1, HPK1 kinase (aa1-346, Life Technologies) (Homo sapiens, UniProt Q92918); assay: HPK Kinase Activity Assay at 1 mM ATP (TR-FRET); assay type: biochemical; conditions: HPK1 kinase 40 nM, 0.5 μM STK1 substrate, 60 min preincubation, read-out: Enzymatic activity IC50
T1 construct: HPK1 kinase (aa1-346, Life Technologies); purchased Life Technologies
T1 sequence (Q92918 1-346): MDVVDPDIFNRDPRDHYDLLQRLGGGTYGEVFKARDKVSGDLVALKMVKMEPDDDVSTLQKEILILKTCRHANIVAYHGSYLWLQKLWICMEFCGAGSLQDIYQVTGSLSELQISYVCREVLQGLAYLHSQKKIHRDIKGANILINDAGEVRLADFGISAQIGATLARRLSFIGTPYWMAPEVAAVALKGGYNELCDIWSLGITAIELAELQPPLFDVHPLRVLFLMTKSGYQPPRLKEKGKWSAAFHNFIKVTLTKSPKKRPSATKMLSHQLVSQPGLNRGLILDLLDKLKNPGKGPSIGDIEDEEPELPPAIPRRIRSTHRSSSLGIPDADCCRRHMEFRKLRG
Description: HPK Kinase Activity Assay at 1 mM ATP
Compounds disclosed herein were tested for inhibition of HPK1 kinase (aa1-346, Life Technologies) activity in assays based on the time-resolved fluorescence-resonance energy transfer (TR-FRET) methodology. The assays were carried out in 384-well low volume black plates in a reaction mixture containing HPK1 kinase (40 nM), 1 mM ATP, 0.5 μM STK1 substrate and 0-10 μM compound in buffer containing 50 mM HEPES, 0.01% BSA, 0.1 mM Orthovanadate, 10 mM MgCl2, 1 mM DTT, pH=7.0, 0.005% Tween-20. The kinase was incubated with the compounds disclosed herein or DMSO for 60 minutes at room temperature and the reaction was initiated by the addition of ATP and STK1 substrate. After reaction at room temperature for 120 minutes, an equal volume of stop/detection solution was added according to the manufacture's instruction (CisBio). The stop/detection solution contained STK Antibody—Cryptate and XL665-conjugated streptavidin in Detection Buffer. The TR-FRET signals (ratio of fluorescence emission at 665 nm over emission at 620 nm with excitation at 337 nm wavelength) were recorded on a PHERAstar FS plate reader (BMG Labtech). Phosphorylation of STK1 substrate led to the binding of STK Antibody—Cryptate to the biotinylated STK1 substrate, which places fluorescent donor (Eu^3+ crypate) in close proximity to the accepter (Streptavidin-XL665), thus resulting in a high degree of fluorescence resonance energy transfer. The inhibition of HPK1 in presence of increasing concentrations of compounds was calculated based on the ratio of fluorescence at 665 nm to that at 620 nm. IC50 determination was performed by fitting the curve of percent inhibition versus the log of the inhibitor concentration using Dotmatics.

[2] = target: T2, HPK1 protein (Homo sapiens, UniProt Q92918); assay: HPK1 Protein Degradation Assay in Human PBMC (Western Blot); assay type: cell-based; conditions: 24 h compound incubation
T2 construct: host or cells: human PBMC (CD4+ and CD8+ T cells gated in the FACS assay)
T2 sequence (Q92918 whole entry): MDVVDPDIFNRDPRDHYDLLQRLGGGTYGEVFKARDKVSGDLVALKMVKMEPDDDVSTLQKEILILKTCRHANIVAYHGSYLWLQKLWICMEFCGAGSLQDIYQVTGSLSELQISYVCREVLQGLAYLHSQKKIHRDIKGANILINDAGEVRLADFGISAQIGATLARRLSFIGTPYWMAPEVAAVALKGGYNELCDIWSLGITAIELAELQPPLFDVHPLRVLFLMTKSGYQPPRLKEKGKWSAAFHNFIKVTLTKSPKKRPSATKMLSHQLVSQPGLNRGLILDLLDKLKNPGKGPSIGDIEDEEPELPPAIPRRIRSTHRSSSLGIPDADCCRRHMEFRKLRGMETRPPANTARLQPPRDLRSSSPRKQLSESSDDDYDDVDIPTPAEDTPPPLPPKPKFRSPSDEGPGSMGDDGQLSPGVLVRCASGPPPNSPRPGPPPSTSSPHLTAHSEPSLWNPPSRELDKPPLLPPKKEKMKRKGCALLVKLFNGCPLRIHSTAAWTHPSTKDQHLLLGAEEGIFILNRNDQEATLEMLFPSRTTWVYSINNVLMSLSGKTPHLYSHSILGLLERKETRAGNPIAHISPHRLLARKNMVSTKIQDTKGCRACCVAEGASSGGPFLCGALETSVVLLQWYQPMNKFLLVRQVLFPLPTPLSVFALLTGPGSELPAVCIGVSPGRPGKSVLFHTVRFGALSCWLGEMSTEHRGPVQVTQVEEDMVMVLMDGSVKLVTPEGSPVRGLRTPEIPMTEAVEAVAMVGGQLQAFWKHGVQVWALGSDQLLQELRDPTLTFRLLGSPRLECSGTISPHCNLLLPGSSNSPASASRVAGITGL
Description: HPK1 Protein Degradation Assay in Human PBMC (Western Blot)
Human PBMCs (AllCells) was used in this study. Cells were thawed one day in advance and maintained in RPMI-1640 supplemented 10% fetal bovine serum (Thermo Fisher), 50 units/mL penicillin and streptomycin (Thermo Fisher) and the mixture was kept at 37° C. in a humidified atmosphere air containing 5% CO2. 3×10^6 PBMCs per well in 1 mL culture medium were seeded in the 12-well plate, and the cells were treated with an appropriate dilution series of compounds with a final concentration up to […]. After 24 h of compound incubation, the medium was aspirated, the cells were washed with PBS, and then 30 μL of 1X protein lysis buffer (Cell Signaling Technology) containing protease inhibitors (Merck) and phosphatase inhibitors (Sigma) was added. The cells were lysed. After centrifugation, the supernatants were quantified by BCA protein assay kit (Thermo Fisher). 4X loading Buffer (Thermo Fisher) was added to equal amounts of total protein from each sample and heated at 95° C. for 5 minutes. 30-50 μg of cell lysate was loaded onto a 4%-12% NuPAGE Bis-Tris Gel (Thermo Fisher) and electro-transferred to NC membranes (Thermo Fisher). The membranes were blocked for least 1 hour with blocking reagent (LI-COR), and then incubated overnight with anti-HPK1 (Cell Signaling Technology, 4472S) antibodies and as loading control anti-ß-actin (Cell Signaling Technology, 3700S) or anti-GAPDH (Cell Signaling Technology, 97166S) at 4° C. with gentle shaking. The membranes were washed three times with TBST, and incubated at least 1 hour at room temperature with anti-mouse or anti-rabbit secondary fluorescent antibody (Thermo Fisher, A32729; LI—COR, 926-32213). Then the membranes were washed three times in TBST, and one time in water. Immunoreactive bands were visualized by Odyssey CLx and analyzed by GraphPad Prism 8.

[3] = tested on: pSLP76 (S376) level in Jurkat cell line; assay: Cellular pSLP76(S376) HTRF Assay in Jurkat cells; assay type: cell-based; conditions: 2 h compound treatment, stimulated with 0.05 μg/mL anti-human CD3 (OKT3) for 30 min
Description: Cellular pSLP76(S376) HTRF Assay
Jurkat cell line was used in this study. Cells were maintained in RPMI 1640 supplemented with heat-inactivated 10% fetal bovine serum (Thermo Fisher), 50 units/mL penicillin and streptomycin (Thermo Fisher) and kept at 37° C. in a humidified atmosphere of 5% CO2 in air. Cells were reinstated from frozen stocks that were laid down within 30 passages from the original cells purchased. After cell starvation in the assay buffer (RPMI 1640 supplemented with heat-inactivated 0.1% fetal bovine serum) for 18 hours, cells were seeded into a round bottom 96-well plate at 150,000 cells per well density. Cells were treated with a 9-point dilution series of test compounds. The final compound concentration is from 0 to 2 μM. After 2 h compound treatment, cells were stimulated with 0.05 μg/mL anti-human CD3 (OKT3, Bioxcell) for 30 min at 37° C. Then the cells were lysed, and the pSLP76 (S376) level in the cell lysates was detected by HTRF kit (Cisbio). A total of 16 μL of cell lysate from each well of a 96-well plate was transferred to a 384-well small volume white assay plate. Lysate from each well was incubated with 2 μL of Eu^3+-cryptate (donor) labeled anti-phospho-SLP76 and 2 μL of D2 (acceptor) labeled anti-phospho-SLP76 antibodies (Cisbio) overnight in dark at room temperature. FRET signals (655 nm) were measured using a PHERAstar FSX reader (BMG Labtech). IC50 determination was performed by fitting the curve of percent inhibition versus the log of the inhibitor concentration using Dotmatics.

pIC50 [1] | DC50 [2] | Dmax [2] | Protein degradation DC90 [2] | pIC50 [3] | Compound
6.60 | 87 nM | 91% | 294 nM | 6.29 | Cc1cc(-c2c[nH]c3ncc(-c4cc(C)c5c(c4)CCN(CCC(=O)NCC4CCN(c6ccc(C7CCC(=O)NC7=O)cc6)CC4)C5)nc23)ccc1C(=O)N(C)C (stereo not drawn) [Example 2, 4-(2-(2-(3-(((1-(4-(2,6-dioxopiperidin-3-yl)phenyl)piperidin-4-yl)methyl)amino)-3-oxopropyl)-8-methyl-1,2,3,4-tetrahydroisoquinolin-6-yl)-5H-pyrrolo[2,3-b]pyrazin-7-yl)-N,N,2-trimethylbenzamide]
6.85 | 59 nM | 95% | 817 nM | 6.34 | Cc1cc(-c2c[nH]c3ncc(-c4cc(C)c5c(c4)CCN(CCC(=O)NC4CCN(c6ccc(N7CCC(=O)NC7=O)cc6)CC4)C5)nc23)ccc1C(=O)N(C)C [Example 4, 4-(2-(2-(3-((1-(4-(2,4-dioxotetrahydropyrimidin-1(2H)-yl)phenyl)piperidin-4-yl)amino)-3-oxopropyl)-8-methyl-1,2,3,4-tetrahydroisoquinolin-6-yl)-5H-pyrrolo[2,3-b]pyrazin-7-yl)-N,N,2-trimethylbenzamide]
6.92 | 183 nM | 47% | 3805 nM | 6.06 | Cc1cc(-c2c[nH]c3ncc(-c4cc(C)c5c(c4)CCN(CCNC(=O)C4CCN(c6ccc7c(c6)C(=O)N(C6CCC(=O)NC6=O)C7=O)CC4)C5)nc23)ccc1C(=O)N(C)C (stereo not drawn) [Example 1, N-(2-(6-(7-(4-(dimethylcarbamoyl)-3-methylphenyl)-5H-pyrrolo[2,3-b]pyrazin-2-yl)-8-methyl-3,4-dihydroisoquinolin-2(1H)-yl)ethyl)-1-(2-(2,6-dioxopiperidin-3-yl)-1,3-dioxoisoindolin-5-yl)piperidine-4-carboxamide]
